Values quoted from earlier work in patent US10589003B2, “Methods for coating surfaces with antimicrobial agents” (The Board of Regents of the University of Texas System, priority 2005, dated 2020).

Test system: Pseudomonas aeruginosa
Conditions: agent on its own; gentian violet after impregnating polymer surfaces incl. polyvinylchloride

Row | SMILES | activity against Pseudomonas aeruginosa
1 | [H]/N=C(\N/C(=N/[H])NCCCCCCNC(=N)NC(=N)Nc1ccc(Cl)cc1)Nc1ccc(Cl)cc1 [chlorhexidine] | not highly active
2 | CN(C)c1ccc(C(=C2C=CC(=[N+](C)C)C=C2)c2ccc(N(C)C)cc2)cc1 [gentian violet] | no activity
